These results are taken from patent publication US20030100567A1, “Tyrosine kinase inhibitors” (priority 2001, published 2003).

Conditions in all cases: in vivo
One data set in a line: Pharmacokinetics in dog.
A further data set is described as follows: Pharmacokinetics in rat.
Data set [1] can be described thus: Pharmacokinetics in rhesus monkey.

In the data set “Pharmacokinetics in dog”, `N#Cc1cnc(Nc2cc(CN3CCN(C(N)=O)CC3)ccn2)s1` had a clearance of 2.6 mL/min/kg and a half-life of 2.1 h.
For `CN(C)C(=O)N1CCN(Cc2ccnc(Nc3ncc(C#N)s3)c2)CC1`, in “Pharmacokinetics in rat”, the clearance is 15.5 mL/min/kg and the half-life was 1.6 h. In “Pharmacokinetics in dog”, the bioavailability was 49%, the clearance is 3.6 mL/min/kg and the half-life was 3.4 h.
As for `CC(=O)N1CCN(Cc2ccnc(Nc3ncc(C#N)s3)c2C)CC1`, in “Pharmacokinetics in dog”, the clearance worked out at 14 mL/min/kg and the half-life is 1.4 h.
In “Pharmacokinetics in rat”, `CNC(=O)N1CCN(Cc2ccnc(Nc3ncc(C#N)s3)c2)CC1` [Compound 4-4, 4-[2-(5-cyano-thiazol-2-ylamino)-pyridin-4-ylmethyl]-piperazine-1-carboxylic acid methylamide] showed a bioavailability of 49%, a clearance of 10.7 mL/min/kg and a half-life of 1.9 h. In addition, in the data set “Pharmacokinetics in dog”, the bioavailability amounted to 99%, the clearance is 0.5 mL/min/kg and the half-life was 17.4 h. In data set [1], this molecule gave a bioavailability of 43%, a clearance of 13.4 mL/min/kg and a half-life of 1.7 h.
In “Pharmacokinetics in rat”, `CS(=O)(=O)C1CCN(Cc2ccnc(Nc3ncc(C#N)s3)c2)CC1` [Compound 5-6, 2-[(4-{[4-(methylsulfonyl)piperidin-1-yl]methyl}pyridin-2-yl)amino]-1,3-thiazole-5-carbonitrile] gave a bioavailability of 70%, a clearance of 16.3 mL/min/kg and a half-life of 1.1 h. For the same molecule, in “Pharmacokinetics in dog”, the bioavailability was 95%, the clearance was determined as 1.8 mL/min/kg and the half-life was 6.3 h. In data set [1], this molecule showed a bioavailability of 67%, a clearance of 3 mL/min/kg and a half-life of 5.5 h.
